These results are taken from patent publication US5420276A, “Analogs of oxetanyl purines and pyrimidines” (Abbott Laboratories, priority 1993, dated 1995).

Each structure is given as a SMILES string. In brackets after ≈: the same amount, converted by molar mass. Like-named read-outs stand apart in the source and are kept apart here. Some results are limits rather than exact numbers.

Series [1] concerns Herpes simplex type 1 (HSV-1) strain E-377. The series can be described thus: CPE-inhibition assay, herpes simplex type 1 strain E-377 in Vero cells. The following applies: for VR (Virus Rating): HSV-1 (E-377); for IC50: Human alphaherpesvirus 1, HSV-1 (E-377), minimum drug concentration that inhibited the CPE by 50%, read-out: ID50 (the source's name). The class given is cell-based, herpes simplex virus type 1. As for the experimental part:
The challenge viruses were propagated and assayed in cells that were pregrown as monolayer cultures in plastic tissue culture flasks and 96-well plates, using cell culture media appropriate for the host cell cultures. The following viruses and host cell cultures were employed:
green monkey kidney (Vero)
On the day of use, a weighed sample of each compound to be evaluated was dissolved and diluted in serial 10^0.5 dilutions in the culture medium appropriate for each virus-host cell system.
(§1) Mammalian cells were pregrown as monolayers in wells of COSTAR 96-well tissue culture plates using suitable cell culture media. Stock viruses were pretitered according to the method of Reed and Muench (Amer. J. Hyg. 27:493-497, 1938) and diluted in cell culture medium to yield 32 CCID50 (cell culture infectious dose, 50%) units per 0.1 ml. Antiviral assays were designed to test seven concentrations of each compound, from cytotoxic to noncytotoxic levels, in triplicate against each of the challenge viruses in microtiter plate wells containing suitable cell monolayers. To each of the replicate cell cultures were added 0.1 ml of the test drug solution and 0.1 ml of virus suspension. Cell controls containing medium alone, virus controls containing medium and virus, and drug cytotoxicity controls containing medium and each drug concentration were run simultaneously with the test samples assayed in each experiment. […] The cell monolayers were examined microscopically for virus-induced CPE and for drug cytotoxicity.
(§2) Antiviral activity was determined by calculating the degree of inhibition of virus-induced CPE in drug-treated, virus-infected cell cultures by means of a virus rating (VR). The VR is a standard weighted measurement of antiviral activity taking into account both the degree of CPE inhibition and drug cytotoxicity, and is determined by a modification of the method of Ehrlich et al. (Ann. N.Y. Acad. Sci. 130: 5-16, 1965) as described below. CPE was graded for each individual culture in each microtiter plate well according to the following scale:
4=100% of the cells affected by virus;
3=75% of the cells affected by virus;
2=50% of the cells affected by virus;
1=25% of the cells affected by virus;
0=No CPE; normal cell monolayer.
The VR was calculated as 0.1 of the sum of the numerical differences between the recorded CPE grade of each test well and that of the corresponding virus control in the culture plate. Numerical differences between the scores of test wells containing a drug concentration which was partially cytotoxic (p) and their corresponding virus controls were halved.
(§3) The minimum inhibitory drug concentration which reduced the cytopathogenic effect (CPE) by 50% (MIC50) was calculated by using a regression analysis program for semilog curve fitting. A therapeutic index (TI) for each active compound for each susceptible virus was determined by dividing the minimum cytotoxic concentration of the test compound by the MIC50.

For series [2], the system named is Human Cytomegalovirus (HCMV) strain AD169. The series can be described thus: HCMV virus yield reduction assay. The settings on record: Human betaherpesvirus 5, AD169, 144 h, MRC5 cells; for log reduction at 3.2 µg/mL: 3.2 μg/ml; for log reduction at 10 µg/mL: 10 μg/ml. The class given is cell-based. As for the experimental part: Human diploid embryonic lung (MRC5) cells were grown in 35 mm wells of 6-well tissue culture plates. Subconfluent cell monolayers were rinsed with phosphate-buffered saline (PBS) and were exposed to 0.5 ml/well of HCMV (strain AD169) suspension for 1.5 hours at 37° C. The virus suspension was diluted in MEM+2% fetal bovine serum (FBS) to yield a multipicity of infection (MOI) of approximately 0.1 plaque forming units (PFU)/cell. Following the virus adsorption period, the inocula were removed and infected cell layers were rinsed with PBS. Aliquiots (2.0 ml) of each test drug concentration (dissolved in MEM supplemented with 2% FBS) were dispensed into triplicate cell cultures: two virus-infected cultures and one uninfected cytotoxicity control culture (exposed to medium without virus for 1.5 hours). Untreated virus-infected control cultures and untreated, uninfected cell control cultures were fed with medium alone. The culture plates were incubated at 37° C. in a humidified atmosphere of 2% CO2 in air. All cell culture fluids were replaced with fresh drug and medium 48 hours postinfection (p.i.). On Day 6 p.i., the cell layers were examined microscopically for cytopathogenic effect (CPE) and drug cytotoxicity. The test and virus control cultures were then harvested by subjecting the cell layers to one cycle of freeze-thawing. The cellular material was scraped into the ambient medium and the contents from replicate cultures were pooled, dispensed into cryotubes and stored at -135° C. The harvested test and virus control samples were thawed and the infectious virus yield was determined by plaque assay in MRC5 cells grown in 12-well cluster plates. Inhibition of HCMV replication by each test compound was determined by comparing the progeny virus yields in the drug-treated cultures with the progeny virus yield in the untreated, virus-infected control cultures.

Series [3] can be described thus: MTT drug cytotoxicity assay in MRC5 cells. The following applies: human, read-out: MTT assay Percent of control. The class given is cell-based. As for the experimental part:
Human diploid embryonic lung (MRC5) cells were grown in 35 mm wells of 6-well tissue culture plates. Subconfluent cell monolayers were rinsed with phosphate-buffered saline (PBS) and were exposed to 0.5 ml/well of HCMV (strain AD169) suspension for 1.5 hours at 37° C. The virus suspension was diluted in MEM+2% fetal bovine serum (FBS) to yield a multipicity of infection (MOI) of approximately 0.1 plaque forming units (PFU)/cell. Following the virus adsorption period, the inocula were removed and infected cell layers were rinsed with PBS. Aliquiots (2.0 ml) of each test drug concentration (dissolved in MEM supplemented with 2% FBS) were dispensed into triplicate cell cultures: two virus-infected cultures and one uninfected cytotoxicity control culture (exposed to medium without virus for 1.5 hours). Untreated virus-infected control cultures and untreated, uninfected cell control cultures were fed with medium alone. The culture plates were incubated at 37° C. in a humidified atmosphere of 2% CO2 in air.
All cell culture fluids were replaced with fresh drug and medium 48 hours postinfection (p.i.).
Drug cytotoxicity was determined quantitatively by a method based on the reduction of the tetrazolium salt, 3-(4,5-dimethyl-thiazol-2-yl)-2,5-diphenyl tetrazolium bromide (MTT) by mitochondrial enzymes of viable host cells to MTT formazan (T. Mosmann, 1983). Drug cytotoxicity controls and cell controls were treated with MTT (dissolved in culture medium) followed by 20% SDS (in 0.02N HCl) to dissolve the crystals of MTT formazan. The blue color of the MTT formazan was measured spectrophotometrically at 570 nm. Drug cytotoxicity was determined by comparing the absorbance (O.D.) of each drug cytotoxicity control with the mean O.D. of the cell control cultures and expressed as percent of control.
Background: Formazan colour is commonly taken as a measure of viable cells.

Series [4] can be described thus: Drug cytotoxicity in Vero cells (microscopic, CPE-inhibition assay). The settings on record: african green monkey, minimum drug concentration causing any cytotoxicity, read-out: MTC. The class given is cell-based. As for the experimental part:
as §1, §2, §3

On to `Nc1ccn([C@@H]2O[C@H](CO)[C@H]2CO)c(=O)n1` [Example 22, 1-([2'R,3'R,4'S]-3',4'-Bis(hydroxymethyl)-2'-oxetanyl)cytosine], for which the “VR (Virus Rating)” value in series [1] is reported as 2.65. Also, the IC50 in series [1] is 0.8 µg/mL (≈ 3.52 µM). For the same compound, the log reduction at 0.032 µg/mL in series [2] (0.032 μg/ml) turned out to be 0.8. Besides, the log reduction at 0.1 µg/mL in series [2] (0.1 μg/ml) worked out at 1.4. In series [2] (0.32 μg/ml), the log reduction at 0.32 µg/mL came to 1.9. In series [2] (1.0 μg/ml), this compound came in with a log reduction at 1 µg/mL of 4.1. Besides, the log reduction at 3.2 µg/mL in series [2] is > 4.4. Also, in series [2], the log reduction at 10 µg/mL is > 4.4. For the same compound, the viability in series [3] (0.32 μg/ml) amounted to 84%; in series [3] (1.0 μg/ml), 81%; in series [3] (3.2 μg/ml), 77%; in series [3] (10 μg/ml), 78%. In addition, the MCC in series [4] (HSV-1 (E-377)) and in series [4] (HSV-2 (MS)) was 10 µg/mL each time.
On to `O=c1ccn([C@@H]2O[C@H](CO)[C@H]2CO)c(=O)[nH]1` [Example 23, 1-([2'R,3'R,4'S]-3',4'-Bis(hydroxymethyl)-2'-oxetanyl)uracil], for which, in series [1], the “VR (Virus Rating)” value was found to be 0.6. Moreover, the IC50 in series [1] stood at 307 µg/mL (≈ 1340 µM). This compound gave a log reduction at 3.2 µg/mL in series [2] of 0.2. The compound further registered a log reduction at 10 µg/mL in series [2] of 0.4. The compound further registered a log reduction at 32 µg/mL in series [2] (32 μg/ml) of 0.5. Further, the log reduction at 100 µg/mL in series [2] (100 μg/ml) amounted to 0.9. This compound also registered a log reduction at 320 µg/mL in series [2] (320 μg/ml) of 1.9. The viability amounted to 100% in series [3] (10 μg/ml), 100% in series [3] (32 μg/ml), 98% in series [3] (100 μg/ml) and 100% in series [3] (320 μg/ml). The MCC in series [4] (HSV-1 (E-377)) and in series [4] (HSV-2 (MS)) was 320 µg/mL throughout.
